Patent US20070015733A1, “Aryl Phosphate Derivatives of d4T having Activity Against Resistant HIV Strains” (Parker Hughes Institute, priority 1998, published 2007)
Like-named read-outs stand apart in the source and are kept apart here.

Columns and labels:
HIV-2 (Strain: CBL-20) = experiment: Inhibition of HIV-2 replication in PBMNC (RT activity); format: cell-based
Procedure: (P-AZT) and with AZT. The incubation and analysis methods used were as described above for Example 3.
Cellular Assays of Anti-HIV Activity and Cytotoxicity. […] Percent viral inhibition was calculated by comparing the RT activity values from the test substance-treated infected cells with RT values from untreated infected cells (i.e., virus controls).

[1] = test system: NRTI-resistant recombinant HIV-1 isolates; conditions: cited from earlier work
[2] = test system: NRTI-resistant recombinant HIV-1 isolates; experiment: Documented fold decreased susceptibility of recombinant HIV-1 clones; format: cell-based; conditions: for mean reduction in susceptibility: mean over 6 recombinant clones; for median reduction in susceptibility: median over 6 recombinant clones
[3] = test system: NRTI-resistant recombinant HIV-1 isolates; experiment: p24 assay, multi-NRTI-resistant recombinant HIV-1 clones; format: cell-based
[4] = test system: zidovudine-resistant primary clinical HIV-1 isolates; experiment: p24 drug susceptibility assay, NRTI-/zidovudine-resistant primary clinical HIV-1 isolates in PBMC; format: cell-based
Procedure: Viruses. […] The HIV-1 strains HTLVIIIB (wildtype RT, NRTI-sensitive, NNRTI-sensitive), A17 (Y181 C mutant, NNRTI-resistant), A17-variant (Y181C+K103N mutant, NNRTI-resistant), and RT-MDR (M41 L, V106N, T215Y; NRTI-resistant, NNRTI-resistant) were also obtained from the AIDS Research and Reference Reagent Program, NIAID.
Antiviral susceptibility assays. Phenotypic drug susceptibility studies of HIV-1 isolates and strains were performed by measuring the production of the p24 gag protein in peripheral blood mononuclear cells (PBMC) from seronegative healthy volunteers in the presence of increasing concentrations of the anti-HIV agent using the quantitative Coulter HIV-1 p24 antigen ezyme immunoassay (EIA) and HIV-1 p24 Antigen Kinetic Standard (Beckman Coulter), as previously described (Uckun, 1998, Antimicrobial Agents and Chemotherapy 37(4): 835-38). Informed consent was obtained from the blood donors according to DHHS guidelines using consent forms approved by the Institutional Review Board. In brief, PBMC were cultured for 72 h in RPMI 1640 medium (Gibco) supplemented with 20% (vol/vol) heat-inactivated fetal bovine serum, 5% human interleukin-2 (Zeptometrix), 2 mM L-glutamine, 25 mM HEPES, 2 g/L NaHCO3, 100 U/ml penicillin/streptomycin (Gibco), 50 μg/ml gentamicin (Gibco), and 5 μg/ml phytohemagglutinin-P (PHA-P) (Sigma) for 24-72 hours prior to exposure to HIV at a multiplicity of infection of 0.001-0.1 during a 1-h adsorbtion period at 37±1° C. in a humidified 5-7% CO2 atmosphere. Subsequently, cells were cultured in 96-well microtiter plates (100 μl/well; 2×10^6 cells/ml, triplicate wells) in the presence of the anti-HIV agents at 6-7 different concentrations ranging from 0.0001 μM to 100 μM, and 25 μL aliquots of culture supernatants were removed from the wells on day 6 after infection for p24 EIA, as previously described (Uckun, 1998, Antimicrobial Agents and Chemotherapy, 37(4):835-38). Controls included uninfected and untreated cells (background control) and infected but untreated (virus control) cells. The p24 EIA utilizes a murine monoclonal antibody to HIV core protein used to coat microwell strips to which the antigen present in the test culture supernatant samples binds. Percent inhibition of viral replication was calculated by comparing the p24 values from the test substance-treated infected cells with p24 values from untreated infected cells (i.e., virus controls). The IC50 values were determined using the Statview statistics program (SAS Institute, Inc.). In parallel, the effects of various treatments on cell viability were also examined as previously described (Uckun, 1998, Antimicrobial Agents and Chemotherapy, 42:383-388). In brief, noninfected PBMC were treated with each compound for 5 days under identical experimental conditions. A microculture tetrazolium assay (MTA) was performed to quantitate cellular proliferation (Uckun, 1998, Antimicrobial Agents and Chemotherapy, 42:383-388).
Phenotypic drug susceptibility studies of HIV-1 isolates and strains were performed by measuring the production of the p24 gag protein in peripheral blood mononuclear cells (PBMC) from seronegative healthy volunteers in the presence of increasing concentrations of the anti-HIV agent using the quantitative Coulter HIV-1 p24 antigen enzyme immunoassay (EIA) and HIV-1 p24 Antigen Kinetic Standard (Beckman Coulter), as previously described. StatView was used in the calculation of the IC50 values from each set of triplicate wells using the linearized form of an exponential equation (lnY=lnb0+b1X; where Y=% inhibition, X=drug concentration). The inhibition constants were log10 transformed to homogenize the variances within each group. […] P-values below 0.05 were deemed significant (JMP Software, SAS).

[5] = Pharmacokinetics after intravenous or oral administration; format: in vivo, mice; conditions: intravenous administration

For `Cc1cn([C@H]2C[C@H](N=[N+]=[N-])[C@@H](CO)O2)c(=O)[nH]c1=O` [AZT, 3′-azido-3′-deoxythymidine], the IC50 (HIV-2 (Strain: CBL-20); Human immunodeficiency virus 2, Table 3, unit inferred, read-out: HIV-2 IC50 [RT]) is listed as 2400 nM, the “antiviral activity against HIV-2 (in words)” value (HIV-2 (Strain: CBL-20); PBMNC) is listed as “not effective” and the Fold decreased susceptibility ([1]; recombinant clone 1617-1) is listed as 261 fold. The Fold decreased susceptibility ([1]; recombinant clone 4755-5) was 61 fold, the Fold decreased susceptibility ([1]; recombinant clone 7295-1) was 9.9 fold and the Fold decreased susceptibility ([1]; recombinant clone 7324-1) was 923 fold. For the same compound, the Fold decreased susceptibility ([1]; recombinant clone 52534-2) was 719 fold, the Fold decreased susceptibility ([1]; recombinant clone 56252-1) was greater than 1000 fold and the “mean reduction in susceptibility” value [2] was 495.7 fold. The “median reduction in susceptibility” value [2] was 490 fold, the IC50 ([3]; Human immunodeficiency virus 1, read-out: IC50 (nM), p24, recombinant clone 1617-1 (151 complex)) was 320 nM and the IC50 ([3]; Human immunodeficiency virus 1, read-out: IC50 (nM), p24, recombinant clone 4755-5) was 165 nM. For the same compound, the IC50 ([3]; Human immunodeficiency virus 1, read-out: IC50 (nM), p24, recombinant clone 7295-1) was 137 nM, the IC50 ([3]; Human immunodeficiency virus 1, read-out: IC50 (nM), p24, recombinant clone 7324-1) was greater than 1000 nM and the IC50 ([3]; Human immunodeficiency virus 1, read-out: IC50 (nM), p24, recombinant clone 52252-1 in Table 18, 56252-1 in Tables 19 and 20 (K65R, 151 complex)) was greater than 1000 nM. For the same compound, the IC50 ([3]; Human immunodeficiency virus 1, read-out: IC50 (nM), p24, recombinant clone printed 52534-1 in Table 18, 52534-2 in Tables 19 and 20 (69 insertion complex)) was greater than 1000 nM, the IC50 ([3]; Human immunodeficiency virus 1, read-out: mean IC50 value, recombinant clones with 151 complex or 69 insertion complex (Group 3+Group 4)) was 773 ± 227 nM and the IC50 ([4]; Human immunodeficiency virus 1, PBMC, isolate 92BR019 (D67N, L214F, T215D, K219Q), PBMC) was 0.2 µM. For the same compound, the IC50 ([4]; Human immunodeficiency virus 1, PBMC, isolate C140 (M41L, M184V, T215Y), PBMC) was 0.1 µM, the IC50 ([4]; Human immunodeficiency virus 1, PBMC, isolate C140, PBMC, p24) was 0.1 µM and the IC50 ([4]; Human immunodeficiency virus 1, PBMC, isolate C467-4 (K20R, D67N, K70R, Y188L, T215F, K219Q), PBMC) was 3.2 µM. For the same compound, the IC50 ([4]; Human immunodeficiency virus 1, PBMC, isolate G190-6, PBMC, p24) was greater than 3.2 µM, the IC50 ([4]; Human immunodeficiency virus 1, PBMC, isolate G691-2 (mutations N.D.), PBMC) was 2.6 µM and the IC50 ([4]; Human immunodeficiency virus 1, PBMC, isolate G704-2, PBMC, p24) was 1.8 µM. It also gave an IC50 ([4]; Human immunodeficiency virus 1, PBMC, isolate G780-1 (M41L, D67N, K70R, T215F, K219Q), PBMC) greater than 3.2 µM, an IC50 ([4]; Human immunodeficiency virus 1, PBMC, isolate G780-1, PBMC, p24) greater than 3.2 µM and an IC50 ([4]; Human immunodeficiency virus 1, PBMC, isolate G890-1 (K20R, M41L, D67N, T69N, K70R, L210W, T215Y), PBMC) greater than 3.2 µM. The IC50 ([4]; Human immunodeficiency virus 1, PBMC, isolate G890-1, PBMC, p24) was greater than 3.2 µM, the IC50 ([4]; Human immunodeficiency virus 1, PBMC, isolate P798-1 (M41L, T215Y), PBMC) was 1.8 µM and the IC50 ([4]; Human immunodeficiency virus 1, PBMC, isolate Q252-2 (M41L, L210W, T215Y), PBMC) was 1.7 µM. The IC50 ([4]; Human immunodeficiency virus 1, PBMC, isolate R416-10 (M41L, T215Y), PBMC) was 0.3 µM, the IC50 ([4]; Human immunodeficiency virus 1, PBMC, isolate S159-2 (M41L, K103N, T215Y), PBMC) was 0.7 µM and the IC50 ([4]; Human immunodeficiency virus 1, PBMC, isolate S762-4 (M41L, T215Y), PBMC) was 1.2 µM. For the same compound, the IC50 ([4]; Human immunodeficiency virus 1, PBMC, isolate T156-3 (M41L, E44D, D67N, T69D, L210W, T215Y), PBMC) was greater than 3.2 µM, the IC50 ([4]; Human immunodeficiency virus 1, PBMC, isolate T156-3, PBMC, p24) was greater than 3.2 µM and the IC50 ([4]; Human immunodeficiency virus 1, PBMC, isolate X165-8 (D67N, T69N, K70R, K103N, Y181C, T215F, K219E), PBMC) was 0.9 µM. The IC50 ([4]; Human immunodeficiency virus 1, PBMC, isolate X165-9 (K20R, D67N, K103N, T215Y), PBMC) was 0.9 µM, the IC50 ([4]; Human immunodeficiency virus 1, PBMC, isolate X267-1 (L74V), PBMC, p24) was 0.6 µM and the IC50 ([4]; Human immunodeficiency virus 1, PBMC, isolate X267-1 (M41L, L74V, L210W, T215Y), PBMC) was 0.6 µM. For the same compound, the IC50 ([4]; Human immunodeficiency virus 1, PBMC, isolate X267-2 (M41L, T215Y), PBMC) was 0.4 µM, the IC50 ([4]; Human immunodeficiency virus 1, PBMC, isolate X267-5 (M41L, F116S, T215Y), PBMC) was 0.6 µM and the IC50 ([4]; Human immunodeficiency virus 1, PBMC, isolate Y270-7 (M41W, Y188L, T215N), PBMC) was 1.5 µM. For the same compound, the IC50 ([4]; Human immunodeficiency virus 1, PBMC, read-out: IC50, μM, Mean ± SE, mean over 20 zidovudine-resistant primary clinical isolates) was 1.6 ± 0.5 µM, the IC50 ([4]; Human immunodeficiency virus 1, PBMC, read-out: mean IC50 value, NRTI-resistant isolates with 5 thymidine analog mutations (Group 1 in Table 19)) was 2.6 µM and the IC50 ([4]; Human immunodeficiency virus 1, PBMC, read-out: mean IC50 value, isolates with M184V plus multiple thymidine analog mutations (Group 2 in Table 19)) was 0.134 ± 0.0188 µM. For the same compound, the IC50 ([4]; isolate G704-2 (M41L, D67N, K70R, L210W, T215Y), PBMC, listed as zidovudine) was greater than 10 µM, the IC50 ([4]; isolate G910-6 (M41L, D67N, K70R, T215Y, K219Q), PBMC, listed as ZDV(AZT)) was greater than 3.2 µM and the IC50 ([4]; isolate G910-6 (M41L, D67N, K70R, T215Y, K219Q), PBMC, listed as zidovudine) was greater than 10 µM.
In the case of `Cc1cn([C@H]2C=C[C@@H](CO)O2)c(=O)[nH]c1=O` [d4T, 2′,3′-didehydro-2′,3′-dideoxythymidine], the Fold decreased susceptibility ([1]; recombinant clone 1617-1) is listed as 11 fold, the Fold decreased susceptibility ([1]; recombinant clone 4755-5) is listed as 3.9 fold and the Fold decreased susceptibility ([1]; recombinant clone 7295-1) is listed as 1.9 fold. For the same compound, the Fold decreased susceptibility ([1]; recombinant clone 7324-1) was 2.6 fold, the Fold decreased susceptibility ([1]; recombinant clone 52534-2) was 9 fold and the Fold decreased susceptibility ([1]; recombinant clone 56252-1) was 20 fold. For the same compound, the “mean reduction in susceptibility” value [2] was 8.1 fold, the “median reduction in susceptibility” value [2] was 6.5 fold and the “elimination half-life (t1/2) of the administered substance” value [5] was 30.3 min.
